Laboratory results published in article PMC7665192, “A natriuretic peptide from Arabidopsis thaliana (AtPNP-A) can modulate catalase 2 activity” (Scientific Reports, 2020).

Columns and labels:
CAT2 = assay: Bimolecular fluorescence complementation (BiFC); assay type: cell-based, Arabidopsis thaliana; conditions: chloroplasts of tobacco leaf protoplasts; NeYFP/CeYFP fusions; mean ± SEM, n = 30, P < 0.0001
Source text: The full-length A. thaliana AtPNP-A (At2g18660) coding region entry plasmid pENTRYAtPNP-A[46] and pCR8/GW-TOPOCAT2 were recombined separately with both pSITE-nEYFP-C1 [GenBank Accession Number GU734651] and pSITE-cEYFP-C1 [GenBank Accession Number GU734652] to create pNeYFP-AtPNP-A, pCeYFP-AtPNP-A, pNeYFP-CAT2 and pCeYFP-CAT2, respectively. Each plasmid has either the N-terminal (NeYFP) or C-terminal (CeYFP) fragment of eYFP followed by either AtPNP-A or CAT2 coding region driven by the 35S plant expression promoter. After sequence was confirmed each plasmid was transformed separately into Agrobacterium tumefaciens strain GV3101 (pMP90). Tobacco leaves were infiltrated as previously described in[50]. Briefly, A. tumefaciens strains grown in 2YT medium were harvested by centrifugation and resuspended in infiltration medium (10 mM MES pH 5.6, 10 mM MgCl2, 150 µM acetosyringone) to a final OD600 of 0.2. Equal volumes of infiltration media containing relevant BiFC strains were mixed and infiltrated into the underside of tobacco leaves using a needleless syringe. Leaves were harvested after 3 days to isolate protoplasts following[51] and then immediately imaged.
BiFC images were captured at the La Trobe University LIMS BioImaging Facility using a LSM 510 confocal laser scanning microscope (Zeiss), with a × 40/1.2 water immersion objective. The natural red autofluorescence of chlorophyll was used as a marker for chloroplasts. Excitation/emission wavelengths were 488/505–530 nm for YFP and 561/650 nm long pass for red fluorescence. At least three images containing one or more protoplasts were taken for each of the plasmid construct combinations. Each image captured three separate filter scans, including YFP, red fluorescence and bright field. Post-processing of images was performed with ImageJ version 1.48 software (https://imagej.nih.gov/ij/). For each image the contrast for each panel was set at automatic contrast. A merged image was generated for reference with a 10 µm scale bar. The red fluorescence only panel was used to encircle ten chloroplasts as region of interest (ROI), then the YFP fluorescence (BiFC) calculated for each ROI was divided by the red fluorescence calculated for the same ROI. All BiFC/red fluorescence points were plotted using GraphPadPrism7 (GraphPadSoftware). Mean and standard error were calculated for each BiFC combination. All statistical analyses were performed using GraphPadPrism7.
Figure 4 AtPNP-A interacts with CAT2 in vivo. […] Exemplar merged images of protoplasts isolated from a leaf infiltrated with different combinations of N- or C-terminally tagged CAT2 and AtPNP-A are shown. (g) BiFC/Red fluorescence chloroplast analysis with mean ± SEM in pink.

[1] = test system: Calcium-binding EF-hand family protein; assay: Yeast two-hybrid (Y2H) screen; parameters: species or system A. thaliana; conditions: bait AtPNP-A amino acids 26–130, prey At2g41410.1
Method: (§1) The Y2H screen using AtPNP-A as bait was carried out by Dualsystems Biotech AG (Zurich, Switzerland). The bait construct for the screening was made by subcloning the cDNA fragment encoding exported portion of AtPNP-A (amino acids 26 to 130) (Fig. 1a) into the pLexA-DIR vector (Dualsystems Biotech AG). The bait construct was transformed into the strain NMY32 (MATa his3Δ200 trp1-901 leu2-3,112 (lexAop)8-ADE2 LYS2::(lexAop)4-HIS3 URA3::(lexAop)8-lacZ GAL4) using standard procedures. Correct expression of the bait was verified by western blotting of cell extracts using a mouse monoclonal antibody directed against the LexA domain (Dualsystems Biotech AG). The absence of self-activation was verified by co-transformation of the bait together with a control prey and selection on minimal medium lacking tryptophan, leucine, and histidine (selective medium). For the Y2H screen, the bait was co-transformed together with a normalized A. thaliana universal P02403 cDNA library (Dualsystems Biotech AG) into NMY32. 3.1 × 10^6 transformants were screened, yielding 96 transformants that grew on selective medium. […] Library plasmids were isolated from positive clones. The identity of positive interactants was determined by sequencing. DNA sequences translated in all three reading frames and searching against the SwissProt database using the BLASTX algorithm (https://blast.ncbi.nlm.nih.gov).

[2] = test system: NAD(P)-binding Rossmann-fold superfamily protein; assay: Yeast two-hybrid (Y2H) screen; parameters: species or system A. thaliana; conditions: bait AtPNP-A amino acids 26–130, prey At1g07440.1
Method: as §1

[3] = test system: SPL8, squamosal promoter binding protein-like 8; assay: Yeast two-hybrid (Y2H) screen; parameters: species or system A. thaliana; conditions: bait AtPNP-A amino acids 26–130, prey At1g02065.1
Method: as §1

## AtPNP-A: An A. thaliana PNP, termed AtPNP-A (At2g18660; Q9ZV52)
CAT2
  BiFC / Red fluorescence signal, interaction with CAT2: interaction of the proteins in chloroplasts of protoplasts
[1]
  Strength of binding: Weak
[2]
  Strength of binding: Moderate
[3]
  Strength of binding: Weak
